Assay results published in patent publication US11167034B2, “Polymeric paste compositions for drug delivery” (The University of British Columbia, priority 2017, dated 2021).
Values belong to the molecule of their own block, whether it stands above or below them.

Experiments:
[1] = In vitro drug release assay from polymeric paste (RP-HPLC-UV); type: physicochemical; settings: for drug released by day 50: PEG:PLGA 63:37 and PEG:PLGA:Diblock 50:37:13 pastes, 1% docetaxel, 4% enzalutamide, FIG. 12A, 12B; for drug released by day 7: 8% w/w lidocaine
Description: The drug-loaded paste can be aliquoted for in vitro release studies. Paste (50-100 mg) is deposited at the bottom of a test tube and release medium is added (5-10 mL, sink conditions). Release medium is phosphate buffered saline (PBS, 10 mM, pH 7.4)) or PBS containing 1% Albumin. The test tubes are kept in a 37° C. incubator until the end of the study. Release samples are taken at appropriate time points by replacing the complete release medium (supernatant) and analyzing it for total drug using Reversed phase high-performance liquid chromatography with ultraviolet (UV) detection (RP-HPLC-UV).

[2] = Kidney pelvis injection of gemcitabine paste; type: in vivo, pigs; settings: 5% gemcitabine in sodium hyaluronate containing paste, pig kidney pelvis
Description: After placement of a ureteral catheter, three pigs received an injection of 1-2 mL of polymeric paste into the kidney pelvis. After removal of the ureteral catheter, a urinary catheter was placed and urine collected for 3 h intervals over 24 h. Blood was collected from an ear vein over 24 h and gemcitabine concentrations were determined using ultra high performance liquid chromatography tandem mass spectrometry (UHPLC-MS/MS).
The drug gemcitabine was incorporated at 5% (m/m) in the sodium hyaluronate containing paste. This paste was injected through the 5 F catheter into the kidney pelvis of a pig.

[3] = Local delivery of lidocaine paste subcutaneously in rats, serum lidocaine; type: in vivo; settings: for maximum serum concentration: subcutaneous, rats
Description: (§1) Five groups of rats (male, Sprague Dawley™) with six animals in each group received one injection of paste formulation (0.1 mL) subcutaneously in their flank. The paste formulation was based on a 50:50 mixture of PEG 300™ and PLGA. Lidocaine was incorporated into the paste at 80, 100, 120, 140, and 160 mg per g of paste. The corresponding doses for each group were 23, 29, 36, 40 and 45 mg of Lidocaine per kg.
Blood was collected from the saphenous vein over four weeks at 0, 0.25, 1, 4, 24, 48, 168 336, 504 and 672 hours after injection. Lidocaine concentrations in rat serum were determined using ultra high performance liquid chromatography tandem mass spectrometry (UHPLC-MS/MS). A non-compartmental analysis was then applied to each data set using Phoenix 64™ (Build 6.3.0.395) WinNonlin 63™ to determine relevant pharmacokinetic parameters.
as §1, with “Sprague Dawley)” for “Sprague Dawley™)”, “of lidocaine” for “of Lidocaine”

[4] = single local injection, regional delivery of lidocaine; cited from earlier work
[5] = PEG:PLGA:Diblock 50:37:13, lidocaine 8%, cephalexin 2%, ibuprofen 5%, FIG. 18
[6] = PEG:PLGA:Diblock 50:37:13, Tamsulosin 2% w/w, FIG. 17
[7] = PEG:PLGA:Diblock 50:37:13, lidocaine 10%, desoximetasone 1%, FIG. 14
[8] = PEG:PLGA 50:50 paste, docetaxel 4%, bicalutamide 4%, VPC-27 10%, FIG. 3A
[9] = PEG:PLGA:Diblock 50:37:13, docetaxel 0.25%, bicalutamide 4%, VPC-27 4%, FIG. 5
[10] = high diblock concentration (PEG:PLGA:Diblock 50:25:25), docetaxel 0.5%, FIG. 6D
[11] = low diblock concentration (PEG:PLGA:Diblock 50:43:7), docetaxel 0.5%, FIG. 6A

Structure (SMILES): CC1=C(C(=O)O)N2C(=O)[C@@H](NC(=O)[C@H](N)c3ccccc3)[C@H]2SC1 [Cephalexin]
- drug release at 1 day ([1]; PEG:PLGA:Diblock 50:37:13, cephalexin between 2 and 19% loading, PBS without albumin, FIG. 10): almost all drug was released
- drug released, maximum on day 3 [1, 5]: 80%

Structure (SMILES): CC(C)Cc1ccc(C(C)C(=O)O)cc1 (stereo not shown) [Ibuprofen]
- drug released by day 35 [1, 5]: approximately 70%
- drug released, burst release by day one [1, 5]: 54%

Structure (SMILES): CCN(CC)CC(=O)Nc1c(C)cccc1C [lidocaine]
- maximum serum concentration ([3]; 80 mg/g paste (PEG 300:PLGA 50:50), 23 mg/kg): 557.26 ± 81.15 ng/mL
- maximum serum concentration ([3]; 100 mg/g paste (PEG 300:PLGA 50:50), 29 mg/kg): 578.90 ± 162.59 ng/mL
- maximum serum concentration ([3]; 120 mg/g paste (PEG 300:PLGA 50:50), 36 mg/kg): 638.03 ± 190.61 ng/mL
- maximum serum concentration ([3]; 140 mg/g paste (PEG 300:PLGA 50:50), 40 mg/kg): 855.98 ± 196.18 ng/mL
- maximum serum concentration ([3]; 160 mg/g paste (PEG 300:PLGA 50:50), 45 mg/kg): 1148.88 ± 838.97 ng/mL
- maximum concentrations detected in serum in each group ([3]; all studied strengths, below upper limit of therapeutic range): < 5000 ng/mL
- duration [4]: 60 to 120 min
- onset [4]: 3 min
- drug released by day 7 ([1]; PEG:PLGA:Diblock 50:37:13, crescent shape): 88%
- drug released by day 7 ([1]; PEG:PLGA:Diblock 50:37:13, cylinder shape): 92%
- drug released by day 7 ([1]; PEG:PLGA:Diblock 50:37:13, hemisphere shape): approximately 65%
- drug released by day 35 [1, 5]: approximately 70%
- drug released, burst release by day one [1, 5]: 54%
- drug released by day 35 [1, 7]: 80%
- drug released, burst within the first day [1, 7]: 50%
- drug released by day 18 ([1]; all PEG:PLGA pastes without diblock (50:50, 55:45, 60:40), 8% lidocaine, FIG. 15): 100%

Second part, led by results:

- drug released by day 6 [1, 6]: 70%
- drug released on day 21 [1, 6]: 80%
- drug released, burst phase on day 1 [1, 6]: 47%
Structure (SMILES): CCOc1ccccc1OCCN[C@H](C)Cc1ccc(OC)c(S(N)(=O)=O)c1 [Tamsulosin]

- drug released by day 35 [1, 7]: 100%
- drug released, burst within the first day [1, 7]: 50%
Structure (SMILES): C[C@@H]1C[C@H]2[C@@H]3CCC4=CC(=O)C=C[C@]4(C)[C@@]3(F)[C@@H](O)C[C@]2(C)[C@H]1C(=O)CO [desoximetasone]

- drug released, fast burst over 5 days [1, 8]: 10%
- further encapsulated drug released over the next 40 days [1, 8]: 20%
- drug release on day 18 ([1]; PEG:PLGA 55:45 paste without diblock, docetaxel 1%, bicalutamide 4%, VPC-27 4%, FIG. 8): around 10%
- drug released by day 50 [1]: approximately 50%
- drug released after one day [1, 9]: 24%
- drug released on day 35 [1, 9]: 32%
- drug release at day 8 ([1]; PEG:PLGA:Diblock 50:37:13, docetaxel 1%, rapamycin 1%, VPC-27 4%, FIG. 9): ~45%
- drug released on day 21 [1, 10]: 78%
- drug released, burst on day 1 [1, 10]: 67%
- drug released on day 21 [1, 11]: 34%
- drug released, burst on day 1 [1, 11]: 20%
Structure (SMILES): CC(=O)O[C@@]12CO[C@@H]1C[C@H](O)[C@@]1(C)C(=O)[C@H](O)C3=C(C)[C@@H](OC(=O)[C@H](O)[C@@H](NC(=O)OC(C)(C)C)c4ccccc4)C[C@@](O)([C@@H](OC(=O)c4ccccc4)[C@H]21)C3(C)C [docetaxel]

- drug released by day 50 [1]: approximately 40%
Structure (SMILES): CNC(=O)c1ccc(N2C(=S)N(c3ccc(C#N)c(C(F)(F)F)c3)C(=O)C2(C)C)cc1F [enzalutamide]

- Serum gemcitabine levels ([2]; FIG. 25B): very low, but detectable in all pigs
Structure (SMILES): Nc1ccn([C@@H]2O[C@H](CO)[C@@H](O)C2(F)F)c(=O)n1 [gemcitabine]
- blockage of the ureter [2]: did not result in any blockage of the ureter
- Gemcitabine levels in urine ([2]; FIG. 25A): initially high and levelled off after 5-7 hours
